Assay results taken from PubChem BioAssay AID2060486 (Molecular Pharmacology Branch, DTP, NCI, 2025).

Tested on: IGROV1 complex spheroids (HUVEC, MSC), viability % test/control
Assay: Anticancer human tumor IGROV1 cell line growth inhibition [GQUAD];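 also: spheroids exposed to compounds for 7 days before readout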;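 as to viability, T/C: 100% = DMSO vehicle control viability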
Details: for IC50: curve of first compound; for viability, T/C: stronger effect = lower value
In short: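 Tumor cells were grown as complex spheroids with HUVEC endothelial cells and mesenchymal stem cells as stroma. G-quadruplex stabilizers were combined with targeted agents over half-log dilutions from near the clinical Cmax, or from 10 microM.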

[1] = second compound 0.0316 µM, first compound 0.0316 µM
[2] = second compound 0.0316 µM, first compound 0.1 µM
[3] = second compound 0.0316 µM, first compound 0.316 µM
[4] = second compound 0.0316 µM, first compound 1 µM
[5] = second compound 0.0316 µM, first compound 3.16 µM
[6] = second compound 0.0316 µM, first compound 10 µM
[7] = second compound 0.1 µM, first compound 0.0316 µM
[8] = second compound 0.1 µM, first compound 0.1 µM
[9] = second compound 0.1 µM, first compound 0.316 µM
[10] = second compound 0.1 µM, first compound 1 µM
[11] = second compound 0.1 µM, first compound 3.16 µM
[12] = second compound 0.1 µM, first compound 10 µM
[13] = second compound 0.316 µM, first compound 0.0316 µM
[14] = second compound 0.316 µM, first compound 0.1 µM
[15] = second compound 0.316 µM, first compound 0.316 µM
[16] = second compound 0.316 µM, first compound 1 µM
[17] = second compound 0.316 µM, first compound 3.16 µM
[18] = second compound 0.316 µM, first compound 10 µM
[19] = second compound 1 µM, first compound 0.0316 µM
[20] = second compound 1 µM, first compound 0.1 µM
[21] = second compound 1 µM, first compound 0.316 µM
[22] = second compound 1 µM, first compound 1 µM
[23] = second compound 1 µM, first compound 3.16 µM
[24] = second compound 1 µM, first compound 10 µM
[25] = second compound 3.16 µM, first compound 0.0316 µM
[26] = second compound 3.16 µM, first compound 0.1 µM
[27] = second compound 3.16 µM, first compound 0.316 µM
[28] = second compound 3.16 µM, first compound 1 µM
[29] = second compound 3.16 µM, first compound 3.16 µM
[30] = second compound 3.16 µM, first compound 10 µM
[31] = second compound 10 µM, first compound 0.0316 µM
[32] = second compound 10 µM, first compound 0.1 µM
[33] = second compound 10 µM, first compound 0.316 µM
[34] = second compound 10 µM, first compound 1 µM
[35] = second compound 10 µM, first compound 3.16 µM
[36] = second compound 10 µM, first compound 10 µM

For COc1cccc2c1C(=O)c1c(O)c3c(c(O)c1C2=O)CC(O)(C(=O)CO)CC3OC1CC(N)C(O)C(C)O1 (centres undefined) + Cc1cnc(CNC(=O)c2c(=O)c3ccc(N4CCCN(C)CC4)nc3n3c2sc2ccccc23)cn1, the IC50 (second compound 0.0316 µM) was less than 31.6 nM, the IC50 (second compound 0.1 µM) was less than 31.6 nM and the IC50 (second compound 0.316 µM) was less than 31.6 nM. The IC50 (second compound 1 µM) was less than 31.6 nM, the IC50 (second compound 3.16 µM) was less than 31.6 nM and the IC50 (second compound 10 µM) was less than 31.6 nM. It also gave a viability, T/C [1] of 40.4%, a viability, T/C [2] of 21.2% and a viability, T/C [3] of 7.47%. For the same compound, the viability, T/C [4] was 4.08%, the viability, T/C [5] was 0.07% and the viability, T/C [6] was 0.9%. The viability, T/C [7] was 29.5%, the viability, T/C [8] was 15.3% and the viability, T/C [9] was 9.07%. The viability, T/C [10] was 3.71%, the viability, T/C [11] was 0.05% and the viability, T/C [12] was 0.74%. It also gave a viability, T/C [13] of 18.7%, a viability, T/C [14] of 14.9% and a viability, T/C [15] of 7.44%. It also gave a viability, T/C [16] of 3.57%, a viability, T/C [17] of 0.07% and a viability, T/C [18] of 0.73%. It also gave a viability, T/C [19] of 11.8%, a viability, T/C [20] of 9.55% and a viability, T/C [21] of 7.95%. The viability, T/C [22] was 3.7%, the viability, T/C [23] was 0.05% and the viability, T/C [24] was 0.66%. The viability, T/C [25] was 10.9%, the viability, T/C [26] was 9.14% and the viability, T/C [27] was 6.91%. It also gave a viability, T/C [28] of 2.27%, a viability, T/C [29] of 0.07% and a viability, T/C [30] of 0.41%. The viability, T/C [31] was 11.1%, the viability, T/C [32] was 8.57% and the viability, T/C [33] was 5.52%. For the same compound, the viability, T/C [34] was 1.8%, the viability, T/C [35] was 0.14% and the viability, T/C [36] was 0.45%.
In the case of CC1COCCN1c1cc(-c2ccnn2C)c2ccnc(-c3ccn[nH]3)c2n1 (centres undefined) + Cc1[nH]c2ccc(F)cc2c1-c1nc2c3cccnc3c3ncccc3c2[nH]1, the IC50 (second compound 0.0316 µM) is reported as 63.5 nM, the IC50 (second compound 0.1 µM) is reported as 52.6 nM and the IC50 (second compound 0.316 µM) is reported as less than 31.6 nM. It also gave an IC50 (second compound 1 µM) of less than 31.6 nM, an IC50 (second compound 3.16 µM) of less than 31.6 nM and an IC50 (second compound 10 µM) of less than 31.6 nM. The viability, T/C [1] was 81.2%, the viability, T/C [2] was 29.2% and the viability, T/C [3] was 13.1%. For the same compound, the viability, T/C [4] was 5.35%, the viability, T/C [5] was 5.85% and the viability, T/C [6] was 3.72%. The viability, T/C [7] was 66.3%, the viability, T/C [8] was 29.4% and the viability, T/C [9] was 12.7%. For the same compound, the viability, T/C [10] was 6.46%, the viability, T/C [11] was 4.05% and the viability, T/C [12] was 3.93%. It also gave a viability, T/C [13] of 48.1%, a viability, T/C [14] of 14.3% and a viability, T/C [15] of 5.71%. The viability, T/C [16] was 5.18%, the viability, T/C [17] was 4.33% and the viability, T/C [18] was 3.75%. It also gave a viability, T/C [19] of 3.38%, a viability, T/C [20] of 3.29% and a viability, T/C [21] of 4.19%. It also gave a viability, T/C [22] of 4.05%, a viability, T/C [23] of 4.41% and a viability, T/C [24] of 2.28%. It also gave a viability, T/C [25] of 3.79%, a viability, T/C [26] of 4.74% and a viability, T/C [27] of 3.3%. It also gave a viability, T/C [28] of 2.73%, a viability, T/C [29] of 3.37% and a viability, T/C [30] of 1.52%. It also gave a viability, T/C [31] of 4.11%, a viability, T/C [32] of 3.77% and a viability, T/C [33] of 3.3%. It also gave a viability, T/C [34] of 3.47%, a viability, T/C [35] of 2.98% and a viability, T/C [36] of 2.3%.
